Assay results taken from US20220142165A1 (priority 2019, published 2022).

Tests used:
[1] = system: grape downy mildew pathogen (Plasmopara viticola); assay: Grape downy mildew control test (Test Example 2); assay type: in vivo; settings: 100 ppm by mass, sprayed on grape leaf disc (variety Chardonnay) before inoculation, blotch area ratio seven days after inoculation, 20° C.; for pest or weed control at 100 ppm: Plasmopara viticola, foliar, 168 h
Description: 5 parts by mass of the compound according to the present invention, 93.5 parts by mass of dimethylformamide, and 1.5 parts by mass of polyoxyethylene alkylaryl ether were mixed and dissolved to prepare an emulsion (I) containing 5% by mass of an active ingredient.
The control value was calculated according to the following formula.
Control value (%)=100−{blotch area ratio in treated area/blotch area ratio in untreated area}×100
Water was added to the emulsion (I) such that the concentration of the heterocyclic compound became 100 ppm by mass, and then the heterocyclic compound was dissolved therein to obtain a pharmaceutical solution. Then, the pharmaceutical solution was sprayed on a leaf disc of grape (variety “Chardonnay”) placed on agar in a 6-well plate. After air-drying, the leaf disc on which the pharmaceutical solution was sprayed was inoculated with zoosporangia of grape downy mildew pathogen (Plasmopara viticola) in a suspension by spraying the suspension thereon (treated area). As a control, a leaf disc on which no pharmaceutical solution was sprayed was inoculated in the same way as mentioned above (untreated area). The resultant leaf discs were left in a moist chamber at 20° C. Seven days after inoculation, the grape leaf discs were visually observed to measure the blotch area ratio to calculate the control value.

[2] = system: tomato late blight pathogen (Phylophihora infeslans); assay: whole plant or invertebrate; assay type: in vivo; settings: Phytophthora infestans, 96 h, read-out: Control value

| SMILES | pest or weed control at 100 ppm [1] | pest or weed control at 125 ppm [2] | melting point | Control value [1] |
| --- | --- | --- | --- | --- |
| Fc1cnc(C(Oc2ccc3ncsc3c2)c2nnco2)cc1/C=N/OCC1CC1 (stereo not drawn) [b-50] | ≥ 75% | ≥ 75% | 129 to 131 °C | – |
| CCCc1cc(OC(c2cc(/C=N/OC)ccn2)c2nnco2)cc2scnc12 (stereo not drawn) [b-24] | ≥ 75% | ≥ 75% | 80 to 82 °C | – |
| Fc1ccc(C(Oc2ccc3ncsc3c2)c2nnco2)nc1 (stereo not drawn) [a-8, 2-((benzo[d]thiazol-6-yloxy)(5-fluoropyridin-2-yl)methyl)-1,3,4-oxadiazole] | ≥ 75% | ≥ 75% | – | – |
| CO/N=C/c1cc(C(Oc2cc3scnc3cc2F)c2nnco2)ncc1F (stereo not drawn) [b-57] | ≥ 75% | ≥ 75% | 150 to 151 °C | – |
| Clc1ccc(C(Oc2ccc3nnsc3c2)c2nnco2)nc1 (stereo not drawn) [b-12] | ≥ 75% | ≥ 75% | 133 to 134 °C | – |
| CO/N=C/c1cc(C(Oc2ccc3ncsc3c2)c2nnco2)ncc1Cl (stereo not drawn) [b-37] | ≥ 75% | ≥ 75% | – | – |
| CO/N=C/c1ccnc(C(Oc2cc(Br)c3ncsc3c2)c2nnco2)c1 (stereo not drawn) [b-13] | ≥ 75% | ≥ 75% | – | – |
| Cc1nc2ccc(OC(c3cc(/C=N/OCC4CC4)c(F)cn3)c3nnco3)cc2s1 (stereo not drawn) [b-49] | ≥ 75% | ≥ 75% | – | – |
| CO/N=C/c1ccnc(C(Oc2ccc3nnsc3c2)c2nnco2)c1 (stereo not drawn) [b-16] | ≥ 75% | – | 172 to 173 °C | – |
| CO/N=C/c1cc(C(Oc2ccc3nnsc3c2)c2nnco2)ncc1F (stereo not drawn) [b-58] | ≥ 75% | ≥ 75% | 134 to 135 °C | – |
| CO/N=C/c1cc(C(Oc2cc(Br)c3ncsc3c2)c2nnco2)ncc1F (stereo not drawn) [b-56] | – | ≥ 75% | 170 to 172 °C | – |
| CO/N=C/c1ccnc(C(Oc2ccc3ncsc3c2)c2nnco2)n1 (stereo not drawn) [b-25] | – | ≥ 75% | – | – |
| CO/N=C/c1cc(C(Oc2ccc3ncsc3c2C)c2nnco2)ncc1F (stereo not drawn) [b-77] | ≥ 75% | – | 108 to 110 °C | – |
| C=Cc1nc2ccc(OC(c3cc(/C=N/OC)c(F)cn3)c3nnco3)cc2s1 (stereo not drawn) [b-63] | ≥ 75% | ≥ 75% | 88 to 89 °C | – |
| CCc1cc(OC(c2cc(/C=N/OC)c(Br)cn2)c2nnco2)cc2sc(C)nc12 (stereo not drawn) [b-52] | ≥ 75% | – | 160 to 161 °C | – |
| CO/N=C/c1cc(C(Oc2ccc3nc(Br)sc3c2)c2nnco2)ncc1F (stereo not drawn) [b-43] | ≥ 75% | – | 151 to 154 °C | – |
| CO/N=C/c1cc(C(Oc2ccc3ncsc3c2)c2nnco2)ncc1C (stereo not drawn) [b-59] | ≥ 75% | – | – | – |
| CC(C)O/N=C/c1ccnc(C(Oc2ccc3ncsc3c2)c2nnco2)c1 (stereo not drawn) [b-18] | ≥ 75% | ≥ 75% | – | – |
| c1ccc(-c2ccnc(C(Oc3ccc4nnsc4c3)c3nnco3)c2)cc1 (stereo not drawn) [b-51] | ≥ 75% | ≥ 75% | – | – |
| c1ccc(C(Nc2ccc3ncsc3c2)c2nnco2)cc1 (stereo not drawn) [b-5] | – | ≥ 75% | – | – |

| SMILES | pest or weed control at 100 ppm [1] | pest or weed control at 125 ppm [2] | melting point | Control value [1] |
| --- | --- | --- | --- | --- |
| CO/N=C/c1cc(C(Oc2ccc3nc(C)sc3c2)c2nnco2)ncc1F (stereo not drawn) [b-71] | – | – | 167 to 168 °C | – |
| CCc1cc(OC(c2cc(/C=N/OCCOC)c(F)cn2)c2nnco2)cc2sc(C)nc12 (stereo not drawn) [b-87] | ≥ 75% | ≥ 75% | 138 to 139 °C | – |
| CO/N=C/c1ccnc(C(Oc2ccc3nc(OC)sc3c2)c2nnco2)c1 (stereo not drawn) [b-28] | ≥ 75% | – | – | – |
| COCCO/N=C/c1cc(C(Oc2ccc3ncsc3c2)c2nnco2)ncc1F (stereo not drawn) [b-85] | ≥ 75% | ≥ 75% | – | – |
| CCO/N=C/c1ccnc(C(Oc2ccc3ncsc3c2)c2nnco2)c1 (stereo not drawn) [b-17] | ≥ 75% | ≥ 75% | 113 to 114 °C | – |
| C(=NOCc1ccccc1)C(Oc1ccc2ncsc2c1)c1nnco1 (stereo not drawn) [b-81] | ≥ 75% | – | – | – |
| CCCCC(Oc1ccc2ncsc2c1)c1nnco1 (stereo not drawn) [a-1, 2-(1-(benzo[d]thiazol-6-yloxy)pentyl)-1,3,4-oxadiazole] | – | ≥ 75% | – | – |
| CO/N=C/c1ccnc(C(Oc2ccc3nc(C)sc3c2)c2nnco2)c1 (stereo not drawn) [b-21] | ≥ 75% | ≥ 75% | 107 to 109 °C | – |
| Cn1cnc2ccc(OC(c3ccc(F)cn3)c3nnco3)cc21 (stereo not drawn) [b-6] | – | ≥ 75% | – | – |
| Fc1ccc(C(Oc2cc(Br)c3ncsc3c2)c2nnco2)nc1 (stereo not drawn) [a-20, 2-((4-bromobenzo[d]thiazol-6-yloxy)(5-fluoropyridin-2-yl)methyl)-1,3,4-oxadiazole] | ≥ 75% | ≥ 75% | – | – |
| CNc1nc2ccc(OC(c3cc(/C=N/OC)c(F)cn3)c3nnco3)cc2s1 (stereo not drawn) [b-74] | ≥ 75% | ≥ 75% | 181 to 182 °C | – |
| CO/N=C/c1cc(C(Oc2ccc3nc(C)sc3c2)c2nnco2)ncc1F (stereo not drawn) [b-27] | ≥ 75% | ≥ 75% | 129 to 131 °C | – |
| C#CCO/N=C/c1ccnc(C(Oc2ccc3ncsc3c2)c2nnco2)c1 (stereo not drawn) [b-20] | ≥ 75% | ≥ 75% | – | – |
| COCOCc1ccnc(C(Oc2ccc3nc(C)sc3c2)c2nnco2)c1 (stereo not drawn) [a-175] | – | – | – | a-175% |
| CO/N=C/c1cc(C(Oc2ccc3nc(OC)sc3c2)c2nnco2)ncc1F (stereo not drawn) [b-54] | ≥ 75% | – | 134 to 136 °C | – |
| CO/N=C/c1cc(C(Oc2ccc3ncsc3c2)c2nnco2)ncc1Br (stereo not drawn) [b-39] | ≥ 75% | ≥ 75% | – | – |
| CO/N=C/c1cc(C(Oc2ccc3ncsc3c2N)c2nnco2)ncc1F (stereo not drawn) [b-78] | – | ≥ 75% | – | – |
| CO/N=C/c1cc(C(Oc2ccc3ncsc3c2)c2nnco2)ncc1SC (stereo not drawn) [b-41] | ≥ 75% | – | – | – |
| CO/N=C/c1cc(C(Oc2ccc3ncsc3c2)c2nnco2)ncc1[S+](C)[O-] (stereo not drawn) [b-61] | ≥ 75% | – | 85 to 88 °C | – |
| COCCO/N=C/c1ccnc(C(Oc2ccc3ncsc3c2)c2nnco2)c1 (stereo not drawn) [b-70] | ≥ 75% | ≥ 75% | – | – |

| SMILES | pest or weed control at 100 ppm [1] | pest or weed control at 125 ppm [2] | melting point | Control value [1] |
| --- | --- | --- | --- | --- |
| Cn1cnc2ccc(OC(c3ccc(Cl)cc3)c3nnco3)cc21 (stereo not drawn) [b-7] | – | ≥ 75% | – | – |
| CC(C)=NOc1ccnc(C(Oc2ccc3ncsc3c2)c2nnco2)c1 (stereo not drawn) [b-33] | ≥ 75% | ≥ 75% | – | – |
| CCc1cc(OC(c2cc(/C=N/OC)ccn2)c2nnco2)cc2scnc12 (stereo not drawn) [b-14] | ≥ 75% | ≥ 75% | – | – |
| CC#Cc1ccnc(C(Oc2ccc3ncsc3c2)c2nnco2)c1 (stereo not drawn) [a-45, 2-((benzo[d]thiazol-6-yloxy)(4-(prop-1-yn-1-yl)pyridin-2-yl)methyl)-1,3,4-oxadiazole] | ≥ 75% | ≥ 75% | – | – |
| CO/N=C\c1cc(C(Oc2ccc3ncsc3c2)c2nnco2)ncc1F (stereo not drawn) [b-38] | ≥ 75% | ≥ 75% | – | – |
| CCCCC(Oc1ccc2ncn(C)c2c1)c1nnco1 (stereo not drawn) [b-4] | – | ≥ 75% | – | – |
| CCCO/N=C/c1ccnc(C(Oc2ccc3ncsc3c2)c2nnco2)c1 (stereo not drawn) [b-69] | ≥ 75% | ≥ 75% | – | – |
| Cn1cnc2ccc(OC(c3ccccc3)c3nnco3)cc21 (stereo not drawn) [b-3] | – | ≥ 75% | 114 to 116 °C | – |
| CO/N=C/c1cc(C(Oc2ccc3nc(I)sc3c2)c2nnco2)ncc1F (stereo not drawn) [b-53] | ≥ 75% | – | 166 to 168 °C | – |
| COCCO/N=C/c1cc(C(Oc2ccc3nc(C)sc3c2)c2nnco2)ncc1F (stereo not drawn) [b-86] | ≥ 75% | ≥ 75% | – | – |
| CO/N=C/c1cc(C(Oc2ccc3nc(C(F)F)sc3c2)c2nnco2)ncc1F (stereo not drawn) [b-72] | ≥ 75% | – | 143 to 144 °C | – |
| Cn1cnc2c(F)cc(OC(c3ccc(F)cn3)c3nnco3)cc21 (stereo not drawn) [b-8] | – | ≥ 75% | – | – |
| CCCCON=CC(Oc1ccc2ncsc2c1)c1nnco1 (stereo not drawn) [b-83] | ≥ 75% | – | – | – |
| FC(F)(F)CO/N=C/c1ccnc(C(Oc2ccc3ncsc3c2)c2nnco2)c1 (stereo not drawn) [b-19] | ≥ 75% | – | 128 to 130 °C | – |
| CO/N=C/c1ccnc(C(Oc2ccc3ncsc3c2)c2nnco2)c1 (stereo not drawn) [b-9] | ≥ 75% | ≥ 75% | – | – |
| CCOCc1ccnc(C(Oc2ccc3ncsc3c2)c2nnco2)c1 (stereo not drawn) [a-75] | – | – | – | a-75% |
| C(=N\OCc1nnco1)/c1ccnc(C(Oc2ccc3ncsc3c2)c2nnco2)c1 (stereo not drawn) [b-67] | – | ≥ 75% | – | – |
| CCc1nc2ccc(OC(c3cc(/C=N/OC)ccn3)c3nnco3)cc2s1 (stereo not drawn) [b-29] | ≥ 75% | ≥ 75% | – | – |
| C(=N\OCC1CC1)/c1ccnc(C(Oc2ccc3ncsc3c2)c2nnco2)c1 (stereo not drawn) [b-68] | ≥ 75% | ≥ 75% | – | – |
| CNc1nc2ccc(OC(c3cc(/C=N/OC)ccn3)c3nnco3)cc2s1 (stereo not drawn) [b-36] | ≥ 75% | ≥ 75% | – | – |
